Target: T1, Aromatase (Homo sapiens, UniProt P11511)
T1 sequence (P11511 whole entry): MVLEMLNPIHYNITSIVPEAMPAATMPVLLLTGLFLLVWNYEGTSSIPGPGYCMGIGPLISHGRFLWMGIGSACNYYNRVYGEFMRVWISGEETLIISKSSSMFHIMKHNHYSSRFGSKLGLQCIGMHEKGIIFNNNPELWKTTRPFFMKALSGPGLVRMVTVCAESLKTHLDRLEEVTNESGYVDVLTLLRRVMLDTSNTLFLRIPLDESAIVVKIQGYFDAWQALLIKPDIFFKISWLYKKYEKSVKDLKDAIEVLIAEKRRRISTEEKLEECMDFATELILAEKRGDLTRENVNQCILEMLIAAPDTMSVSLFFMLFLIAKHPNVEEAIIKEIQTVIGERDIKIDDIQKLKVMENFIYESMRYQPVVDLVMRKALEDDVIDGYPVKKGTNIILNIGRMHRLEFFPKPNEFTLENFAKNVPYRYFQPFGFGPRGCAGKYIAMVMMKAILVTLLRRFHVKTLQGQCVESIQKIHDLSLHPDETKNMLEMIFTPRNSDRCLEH
Test: Inhibition of binding to human Placental Cytochrome P450 19A1

SMILES | Ki [nM]
C[C@]12CCC3C(CCC4=CC(=O)[C@H]5C[C@@H](O)[C@]43C5)C1CCC2=O (single isomer, unassigned) | 870
C[C@]12CCC3C(CCC4=CC(=O)CC[C@@]43C(O)CBr)C1CCC2=O (single isomer, unassigned; 11a) | 27
C[C@]12CCC3C(CCC4=CC(=O)[C@H]5CC[C@]43C5)C1CCC2=O (some centres undefined) | 70
C[C@]12CCC3C(CCC4=CC(=O)[C@H]5C[C@H](O)[C@]43C5)C1CCC2=O (single isomer, unassigned) | 926

— ChEMBL document CHEMBL1125704, “Novel time-dependent inhibitors of human placental aromatase” (J Med Chem, 1991)
